The record followed here is patent publication US8637510B2, “Morpholinothiazoles as alpha 7 positive allosteric modulators” (Janssen Pharmaceutica NV, priority 2009, dated 2014).

One data set concerns the target T1, human alpha 7-wt nAChR (Homo sapiens, UniProt P36544).
T1 construct: expressed in transfected cells
Put plainly: Ca2+ flux imaging (FDSS) (Protocol B). The format is cell-based. To be noted: for Emax: efficacy of 100 μM choline defined as 100% in the absence of a PAM, read-out: a7-PAM-G_[33]_Eff_Curve_FI % Efficacy; for EC50: potentiation of 100 μM choline, compounds 0.01 μM to 30 μM, read-out: a7-PAM-G_[33]_pEC50 pEC50 (converted). In a few lines: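 Fluo-4AM-loaded cells expressing human α7-wt nAChR, in HBSS with 10 mM HEPES, 5 mM CaCl2, 0.1% BSA, received compound (0.01–30 μM), typically 10 min before 100 μM choline, with calcium flux read in real time. Potentiation is relative to choline alone (100%); EC50 from sigmoidal curves.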
Background: Calcium flux is commonly read through the fluorescence of an indicator in the cells.

The target of data set [1] is T2, human alpha 7-wt nAChR-expressing GH4C1 cells (Homo sapiens, UniProt P36544).
T2 construct: expressed in transfected cells
Put plainly: Patch-clamp current recording (whole-cell voltage-clamp, PAM type classification). In kind it is cell-based. The arrangement: key: Type 0 compounds minimally change the effect size of the current elicited by 1 mM choline.; Type 1 compounds enhance the effect size of the current elicited by 1 mM choline but minimally alter the kinetics of the receptor.; Type 2 compounds enhance the effect size of the current elicited by 1 mM choline while reducing the rate and/or the extent of desensitization.; Type 3 compounds enhance the effect size of the current elicited by 1 mM choline. When tested at higher concentrations up to 10 μM they completely inhibit desensitization; Type 4 compounds allow for an initial desensitization of the receptor followed by a re-opening of the receptor during agonist application. To be noted: 1 mM choline. The procedure, abridged: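 Whole-cell voltage clamp of GH4C1 cells stably expressing human wild-type α7 nAChR, with compound co-applied with 1 mM choline via rapid (<100 ms) solution switching; external pH 7.3, CsCl-based internal solution, 1.5-3 MΩ electrodes. PAM type (0-4) assigned from current kinetics when peak potentiation reached ≥200% of control choline response.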
On the technique in general: In patch-clamp work, channel activity is measured electrically.

Molecules are shown by their SMILES.

T2 sequence (P36544 23-502): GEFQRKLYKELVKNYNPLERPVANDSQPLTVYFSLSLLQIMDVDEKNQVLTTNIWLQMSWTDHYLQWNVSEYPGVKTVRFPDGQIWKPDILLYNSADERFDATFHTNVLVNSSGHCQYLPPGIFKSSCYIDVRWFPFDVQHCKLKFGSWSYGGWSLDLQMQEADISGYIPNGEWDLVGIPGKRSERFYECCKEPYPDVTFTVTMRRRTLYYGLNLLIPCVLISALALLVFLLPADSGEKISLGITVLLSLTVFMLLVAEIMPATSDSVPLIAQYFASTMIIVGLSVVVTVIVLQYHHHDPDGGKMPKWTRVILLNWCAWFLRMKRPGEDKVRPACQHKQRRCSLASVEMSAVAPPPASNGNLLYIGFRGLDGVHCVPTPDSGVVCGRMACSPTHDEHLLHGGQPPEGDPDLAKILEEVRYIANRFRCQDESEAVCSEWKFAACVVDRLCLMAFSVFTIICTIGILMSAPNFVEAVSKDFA
T1 sequence (P36544 23-502): as above

The compound `COc1cc(-c2sc(N3C[C@@H](C)O[C@@H](C)C3)nc2CNC(=O)c2cccc(F)c2)cc(C)n1` [Compound 85, N-[[2-[(2R,6S)-2,6-dimethyl-4-morpholinyl]-5-(2-methoxy-6-methyl-4-pyridinyl)-4-thiazolyl]methyl]-3-fluoro-benzamide] displayed a melting point of 172 °C. On human alpha 7-wt nAChR, the Emax stood at 320% and the EC50 was 708 nM. Also, the “PAM_Type PAM type” value in data set [1] came out at 0.

`CC(C)C(=O)NCc1nc(N2C[C@@H](C)O[C@@H](C)C2)sc1-c1ccnc(C(F)(F)F)c1` [Compound 201, N-[[2-[(2R,6S)-2,6-dimethyl-4-morpholinyl]-5-[2-(trifluoromethyl)-4-pyridinyl]-4-thiazolyl]methyl]-2-methyl-propanamide] showed a melting point of 216 °C. In addition, at human alpha 7-wt nAChR, the Emax came to 930% and the EC50 is 245 nM. For the same compound, in data set [1], the “PAM_Type PAM type” value was found to be 1.

Compound `Cc1cc(-c2sc(N3CCOC(C)(C)C3)nc2CNC(=O)c2ccc(F)cc2C)cc(C)n1` [Compound 157, N-[[2-(2,2-dimethyl-4-morpholinyl)-5-(2,6-dimethyl-4-pyridinyl)-4-thiazolyl]methyl]-4-fluoro-2-methyl-benzamide] had a melting point of 197 °C. Moreover, the EC50 on human alpha 7-wt nAChR was 224 nM. Moreover, the “PAM_Type PAM type” value in data set [1] is recorded as 2.

In general, melting point refers to the temperature of the solid-liquid transition.
